Measurements taken from patent US10160747B2, “Compounds and methods for kinase modulation, and indications therefor” (Plexxikon Inc., priority 2016, dated 2018).

What was measured:
Type in all cases: biochemical
FLT3-D835Y = biological target: T1, FLT3-D835Y (Homo sapiens, UniProt P36888, D835Y); test: FLT3-D835Y recombinant enzyme kinase assay (AlphaScreen); settings: 8 pt, GMean
T1 construct: purchased Invitrogen PV3967
T1 sequence (P36888 27-993 D835Y): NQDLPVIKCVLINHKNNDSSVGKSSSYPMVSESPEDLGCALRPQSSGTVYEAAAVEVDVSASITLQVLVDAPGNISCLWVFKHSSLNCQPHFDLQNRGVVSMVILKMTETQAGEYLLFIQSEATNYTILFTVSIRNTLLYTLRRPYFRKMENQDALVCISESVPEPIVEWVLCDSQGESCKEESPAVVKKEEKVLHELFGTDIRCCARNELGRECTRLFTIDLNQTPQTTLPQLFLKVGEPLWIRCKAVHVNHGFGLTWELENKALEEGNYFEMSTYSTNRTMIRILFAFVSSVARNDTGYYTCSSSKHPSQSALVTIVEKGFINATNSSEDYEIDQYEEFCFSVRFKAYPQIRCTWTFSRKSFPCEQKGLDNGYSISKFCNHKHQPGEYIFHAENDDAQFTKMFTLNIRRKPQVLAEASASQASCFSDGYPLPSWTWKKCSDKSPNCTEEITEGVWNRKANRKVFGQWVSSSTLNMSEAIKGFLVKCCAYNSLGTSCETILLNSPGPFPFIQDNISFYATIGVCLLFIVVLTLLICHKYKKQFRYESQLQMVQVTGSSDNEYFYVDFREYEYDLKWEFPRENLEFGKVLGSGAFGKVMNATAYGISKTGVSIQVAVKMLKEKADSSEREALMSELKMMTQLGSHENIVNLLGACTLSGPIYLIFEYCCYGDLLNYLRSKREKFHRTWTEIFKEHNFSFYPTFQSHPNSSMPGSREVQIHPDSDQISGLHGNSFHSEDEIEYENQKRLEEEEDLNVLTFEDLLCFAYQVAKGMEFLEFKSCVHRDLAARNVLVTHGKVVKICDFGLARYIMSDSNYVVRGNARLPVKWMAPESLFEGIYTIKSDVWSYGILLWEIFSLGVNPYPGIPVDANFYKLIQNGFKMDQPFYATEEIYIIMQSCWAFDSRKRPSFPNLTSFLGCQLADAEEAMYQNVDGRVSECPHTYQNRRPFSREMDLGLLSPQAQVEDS
Procedure, shortened: (§1)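 Recombinant kinase phosphorylates 30 nM biotinylated poly(Glu4-Tyr) peptide; ATP is 10 μM for FLT3-ITD and FLT3-D835Y, 100 μM for c-KIT. Phosphotyrosine detected by AlphaScreen (streptavidin donor, PY20 acceptor beads, 10 μg/mL), 580 nm signal after 680 nm excitation; IC50 from signal decrease.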

c-KIT = biological target: T2, c-KIT (Homo sapiens, UniProt P10721); test: c-KIT recombinant enzyme kinase assay (AlphaScreen); settings: 100 ATP, 8 pt
T2 construct: purchased Millipore 14-559K
Procedure, shortened: as §1

FLT3-ITD = biological target: T3, FLT3-ITD (Homo sapiens, UniProt P36888); test: FLT3-ITD recombinant enzyme kinase assay (AlphaScreen); settings: 8 pt; read-out: FLT3_ITD 8 pt: IC50
T3 sequence (P36888 1-993): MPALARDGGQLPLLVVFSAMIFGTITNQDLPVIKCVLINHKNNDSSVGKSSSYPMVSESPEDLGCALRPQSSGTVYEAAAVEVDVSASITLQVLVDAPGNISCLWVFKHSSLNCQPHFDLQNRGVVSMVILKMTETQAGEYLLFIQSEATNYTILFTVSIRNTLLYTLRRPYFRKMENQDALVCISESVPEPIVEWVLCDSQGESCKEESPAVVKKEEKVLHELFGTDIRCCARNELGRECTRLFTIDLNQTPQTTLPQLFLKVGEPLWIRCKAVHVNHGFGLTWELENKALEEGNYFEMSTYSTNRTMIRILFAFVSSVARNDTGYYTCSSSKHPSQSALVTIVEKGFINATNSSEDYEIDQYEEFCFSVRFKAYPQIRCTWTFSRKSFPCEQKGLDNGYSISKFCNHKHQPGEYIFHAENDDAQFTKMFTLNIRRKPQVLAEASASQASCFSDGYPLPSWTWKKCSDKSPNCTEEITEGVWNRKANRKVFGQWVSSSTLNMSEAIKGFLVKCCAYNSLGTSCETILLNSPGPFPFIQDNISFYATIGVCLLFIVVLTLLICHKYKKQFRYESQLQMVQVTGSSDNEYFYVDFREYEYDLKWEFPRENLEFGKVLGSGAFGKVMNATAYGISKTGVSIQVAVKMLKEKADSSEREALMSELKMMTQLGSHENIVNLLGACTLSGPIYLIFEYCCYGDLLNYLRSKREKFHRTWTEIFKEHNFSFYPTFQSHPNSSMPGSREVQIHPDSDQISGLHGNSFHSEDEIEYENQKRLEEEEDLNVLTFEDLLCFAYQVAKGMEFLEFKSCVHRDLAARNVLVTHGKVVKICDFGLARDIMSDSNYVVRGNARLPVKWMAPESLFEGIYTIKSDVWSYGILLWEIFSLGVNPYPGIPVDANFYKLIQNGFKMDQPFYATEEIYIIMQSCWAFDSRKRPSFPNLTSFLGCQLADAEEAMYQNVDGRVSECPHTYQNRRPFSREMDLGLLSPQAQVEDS
Procedure, shortened: as §1

Measured: IC50

T2 sequence (P10721 26-976): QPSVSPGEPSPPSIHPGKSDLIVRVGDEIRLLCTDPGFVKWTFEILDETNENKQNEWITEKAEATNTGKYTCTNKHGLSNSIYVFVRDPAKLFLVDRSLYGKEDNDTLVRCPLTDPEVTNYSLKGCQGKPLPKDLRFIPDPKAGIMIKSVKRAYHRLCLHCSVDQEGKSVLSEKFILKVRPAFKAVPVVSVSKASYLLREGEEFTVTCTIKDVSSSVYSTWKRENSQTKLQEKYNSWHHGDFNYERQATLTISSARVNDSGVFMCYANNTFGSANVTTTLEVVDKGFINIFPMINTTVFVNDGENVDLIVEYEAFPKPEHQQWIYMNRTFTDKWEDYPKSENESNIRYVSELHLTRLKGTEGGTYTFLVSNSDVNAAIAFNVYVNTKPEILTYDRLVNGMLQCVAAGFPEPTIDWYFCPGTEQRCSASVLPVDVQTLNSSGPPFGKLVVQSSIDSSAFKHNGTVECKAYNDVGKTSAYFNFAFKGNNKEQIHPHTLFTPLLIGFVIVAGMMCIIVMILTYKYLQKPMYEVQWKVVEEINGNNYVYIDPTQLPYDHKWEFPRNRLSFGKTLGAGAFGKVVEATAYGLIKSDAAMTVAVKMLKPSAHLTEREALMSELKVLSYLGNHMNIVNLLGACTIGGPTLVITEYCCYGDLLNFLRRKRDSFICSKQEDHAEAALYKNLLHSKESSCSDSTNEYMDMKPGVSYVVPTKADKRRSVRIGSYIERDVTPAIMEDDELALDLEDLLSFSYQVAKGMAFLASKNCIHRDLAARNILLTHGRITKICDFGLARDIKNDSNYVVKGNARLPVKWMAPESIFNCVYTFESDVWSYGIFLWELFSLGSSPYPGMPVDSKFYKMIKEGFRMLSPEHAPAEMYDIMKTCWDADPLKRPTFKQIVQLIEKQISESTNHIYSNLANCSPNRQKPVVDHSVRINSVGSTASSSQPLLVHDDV

O=C(Cc1ccc(-c2cnc3[nH]cc(F)c3c2)cc1F)Nc1cncc(C(F)(F)F)c1 [Compound P-0053, 2-[2-fluoro-4-(3-fluoro-1H-pyrrolo[2,3-b]pyridin-5-yl)phenyl]-N-[5-(trifluoromethyl)-3-pyridyl]acetamide]
0.0001 to 10 µM: all assays above

Cc1ncc(NC(=O)Cc2ccc(-c3cnc4[nH]cc(Cl)c4n3)cc2F)cc1C(F)(F)F [Compound P-0059, 2-[4-(7-chloro-5H-pyrrolo[2,3-b]pyrazin-2-yl)-2-fluoro-phenyl]-N-[6-methyl-5-(trifluoromethyl)-3-pyridyl]acetamide]
0.0001 to 10 µM: all assays above

Cn1cc(Nc2ncc(-c3ccc(CC(=O)Nc4cncc(C(C)(F)F)c4)c(F)c3)cn2)cn1 [Compound P-0090, N-[5-(1,1-difluoroethyl)-3-pyridyl]-2-[2-fluoro-4-[2-[(1-methylpyrazol-4-yl)amino]pyrimidin-5-yl]phenyl]acetamide]
0.0001 to 10 µM: all assays above

O=C(Cc1ccc(-c2cnc3[nH]cc(F)c3c2)cc1F)Nc1cc(Cl)c(C2CC2)cn1 [Compound P-0044, N-(4-chloro-5-cyclopropyl-2-pyridyl)-2-[2-fluoro-4-(3-fluoro-1H-pyrrolo[2,3-b]pyridin-5-yl)phenyl]acetamide]
0.0001 to 10 µM: all assays above

COc1ncc(NC(=O)Cc2ccc(-c3cnc4[nH]cc(Cl)c4n3)cc2F)cc1C(F)(F)F [Compound P-0047, 2-[4-(7-chloro-5H-pyrrolo[2,3-b]pyrazin-2-yl)-2-fluoro-phenyl]-N-[6-methoxy-5-(trifluoromethyl)-3-pyridyl]acetamide]
0.0001 to 10 µM: all assays above

CCC(=O)c1c[nH]c2ncc(-c3ccc(CC(=O)Nc4cnc(C)c(C(F)(F)F)c4)c(F)c3)cc12 [Compound P-0070, 2-[2-fluoro-4-(3-propanoyl-1H-pyrrolo[2,3-b]pyridin-5-yl)phenyl]-N-[6-methyl-5-(trifluoromethyl)-3-pyridyl]acetamide]
0.0001 to 10 µM: all assays above

Cc1ncc(NC(=O)Cc2ccc(-c3cnc4[nH]c(Cl)cc4c3)cc2F)cc1C(F)(F)F [Compound P-0067, 2-[4-(2-chloro-1H-pyrrolo[2,3-b]pyridin-5-yl)-2-fluoro-phenyl]-N-[6-methyl-5-(trifluoromethyl)-3-pyridyl]acetamide]
0.0001 to 10 µM: all assays above

CC(=O)c1c[nH]c2ncc(-c3ccc(CC(=O)Nc4cncc(C(F)(F)F)c4)c(F)c3)cc12 [Compound P-0055, 2-[4-(3-acetyl-1H-pyrrolo[2,3-b]pyridin-5-yl)-2-fluoro-phenyl]-N-[5-(trifluoromethyl)-3-pyridyl]acetamide]
0.0001 to 10 µM: all assays above

Cn1cnc(Nc2ncc(-c3cc(F)c(CC(=O)Nc4cncc(C(F)(F)F)c4)cc3F)cn2)c1 [Compound P-0078, 2-(2,5-difluoro-4-(2-((1-methyl-1H-imidazol-4-yl)amino)pyrimidin-5-yl)phenyl)-N-(5-(trifluoromethyl)pyridin-3-yl)acetamide]
0.0001 to 10 µM: all assays above

O=C(Cc1ccc(-c2cnc(Nc3cnn4ccccc34)nc2)cc1F)Nc1ccnc(C(F)(F)F)c1 [Compound P-0033, 2-[2-fluoro-4-[2-(pyrazolo[1,5-a]pyridin-3-ylamino)pyrimidin-5-yl]phenyl]-N-[2-(trifluoromethyl)-4-pyridyl]acetamide]
0.0001 to 10 µM: all assays above

Cn1cnc(Nc2ncc(-c3ccc(CC(=O)Nc4cncc(C(F)(F)F)c4)c(F)c3)cn2)c1 [Compound P-0052, 2-[2-fluoro-4-[2-[(1-methylimidazol-4-yl)amino]pyrimidin-5-yl]phenyl]-N-[5-(trifluoromethyl)-3-pyridyl]acetamide]
0.0001 to 10 µM: all assays above

Cc1ncc(NC(=O)Cc2ccc(-c3cnc(Nc4cnn5ccccc45)nc3)cc2F)cc1C(F)(F)F [Compound P-0065, 2-(2-fluoro-4-(2-(pyrazolo[1,5-a]pyridin-3-ylamino)pyrimidin-5-yl)phenyl)-N-(6-methyl-5-(trifluoromethyl)pyridin-3-yl)acetamide]
0.0001 to 10 µM: all assays above

COc1ncc(NC(=O)Cc2ccc(-c3cnc(Nc4cnn(C)c4)nc3)cc2F)cc1C(F)(F)F [Compound P-0089, 2-[2-fluoro-4-[2-[(1-methylpyrazol-4-yl)amino]pyrimidin-5-yl]phenyl]-N-[6-methoxy-5-(trifluoromethyl)-3-pyridyl]acetamide]
0.0001 to 10 µM: all assays above

Cc1ncc(NC(=O)Cc2ccc(-c3cnc4[nH]cc(F)c4c3)cc2F)cc1C(F)(F)F [Compound P-0062, 2-[2-fluoro-4-(3-fluoro-1H-pyrrolo[2,3-b]pyridin-5-yl)phenyl]-N-[6-methyl-5-(trifluoromethyl)-3-pyridyl]acetamide]
0.0001 to 10 µM: all assays above

Cc1ncc(NC(=O)Cc2ccc(-c3cnc(Nc4cn[nH]c4)nc3)cc2F)cc1C(F)(F)F [Compound P-0027, 2-[2-fluoro-4-[2-(1H-pyrazol-4-ylamino)pyrimidin-5-yl]phenyl]-N-[6-methyl-5-(trifluoromethyl)-3-pyridyl]acetamide]
0.0001 to 10 µM: all assays above

Cn1cc(Nc2ncc(-c3ccc(CC(=O)Nc4ccnc(C(F)(F)F)c4)c(F)c3)cn2)cn1 [Compound P-0083, 2-[2-fluoro-4-[2-[(1-methylpyrazol-4-yl)amino]pyrimidin-5-yl]phenyl]-N-[2-(trifluoromethyl)-4-pyridyl]acetamide]
0.0001 to 10 µM: all assays above
